Measurements taken from patent US5753516A, “Screening method for ligands of the EBI-1 receptor” (priority 1995, dated 1998).
pKd: −log10 of the molar value. Entries after “also recorded” stand apart in the source; their conditions may differ. Where two headings read alike, the source gives them in different places.

What was measured:
LAZ 221 cells = test: Migration (chemotaxis) of LAZ 221 pre-B ALL cells; type: cell-based, human; conditions: LAZ 221, peptide 100 nM; spontaneous locomotion 1886
NALM 6 cells [1] = test: Flow cytometry of surface molecule expression on NALM 6 cells; type: cell-based, human; conditions: for surface expression of CD9: NALM 6 / pre-B ALL cells
Method: NALM 6 cells (10^6 /ml) were incubated at 37° with MET-ENK (10^-7 M) for 0 (Panel A and B) or 30 minutes (Panel C and D). Cells were then transferred to an ice bath, pelleted by centrifugation, and stained for immunofluorescent analysis and flow cytoflourimetry. Data are shown as histograms depicting the distribution of 10,000 cells labeled with anti-CD9 (Panel A and C) or CD-10 (Panel B and D) mAb. The anti-CD9 and anti-CD10 mAb used for these experiments were isotype matched (IgG1).
FIG. 4, Panels A-C. […] Data are presented as mean fluorescence intensities measured for 10,000 cells labeled with anti-CD9 or CD10 mAb. In Panel A, the NALM 6 Cells were incubated with MET-ENK (10^-7 M) for the times indicated. In Panel B, the LAZ 221 cells were incubated with MET-ENK at the doses indicated for 5 minutes at 37° C. […] The anti-CD9 and anti-CD10 mAb used for these experiments were of the IgG2a isotype.
(§1) Immunofluorescence Staining and Flow Cytometric Analysis of Cell Surface Molecules: Cells were resuspended at 1×10^6 /ml in PBS and then incubated for periods of 5 to 120 minutes at 37° C. with MET-ENK at doses of 0 to 10^-5 M. Incubations were terminated by transferring samples to an ice bath and then pelleting the cells by centrifugation at 1800 rpm for 5 minutes at 4° C.
(§2) Immunofluorescence staining was carried out in 4-ml tubes maintained in an ice water bath. […] Cells were subsequently fixed within a 2% solution of formalin and maintained in the dark at 10° C. until analyzed.
(§3) Flow cytometric analysis was performed using a FACS SCAN Flow Cytometer (Becton Dickinson, Mountain View, Calif.) equipped with a HP9000 Series computer and the Lysys System software analysis package. Data were collected as histograms depicting the fluorescence intensity for 5,000 to 10,000 cells per sample.
(§4) The non-binding IgG1 MOPC myeloma protein, anti-macrophage/monocyte specific CD14 (MO2; IgG2) and anti-T cell specific CD3 (OKT3; IgG2a) mAb were employed as nonreactive controls for measuring the autofluorescence of B cells.

LAZ 388 cells = test: Flow cytometry of surface molecule expression on LAZ 388 cells; type: cell-based, human
Method: as §1, §2, §3, §4

NALM 6 cells [2] = test: MET-ENK-FITC binding to NALM 6 cells (flow cytometry, Scatchard); design: species or system human; conditions: NALM 6
Jurkat cells = test: [Ca^2+ ]i response of Jurkat cells (Indo-1, flow cytometry); type: cell-based, human
Method: FIG. 14, Panel A and B. Methionine enkephalin and opiate receptor agonists selective for […] stimulate transmembrane signaling in Jurkat cells. Cells were labeled with Indo-1, washed twice in serum-free medium and held at 4° C. until analyzed. Indo-1 fluorescence was measured using flow cytometry as previously described (Heagy et al., 1992; Ledbetter et al., 1987; Chang et al., 1989; Rabinovitch et al., 1986). The fluorescence for nonstimulated cells (measured in medium, alone) was arbitrarily set at 1.0. Data are presented as per cent increase in the response [(r-baseline) x 100%]. Baseline [Ca^2+ ]i value measured for Jurkat cells (n=4) was 80±40 nM. Baseline Panel A, Jurkat cell response to MET-ENK (0.1 nM, 10 nM and 1 μM) and to the d- selective agonist Dermenkephalin (10 nM). Panel B, Jurkat cell response to the d- selective agonist (D-Pen ^2,5, p Cl-Phe^4)-ENK (0.1 nM. 10 nM. 1 μM).
The inventors (Heagy et al., 1992) have previously shown that when applied to NALM 6 cells the κ-1 agonist U69,953 stimulates a rapid increase in [Ca^2+ ]i. […] In order to determine whether the sites the inventors have identified using the δ-selective agonists also elicit Ca^2+ responses the inventors measured the effects of opioid peptides and δ-selective agonists on the calcium response. […] These studies provide evidence that Jurkat cells have functional δ opiate receptor sites which stimulate transmembrane signaling via rapid increases in [Ca^2+ ]i.

COS (Vector Control) = test: cAMP accumulation in COS cells (vector control); type: cell-based, monkey
NALM 6 cells [3] = conditions: cited from earlier work
human T cells = conditions: Heagy et al., 1990; cited from earlier work
PBMC = conditions: cited from earlier work
[4] = NALM 6, 10^-7 M MET-ENK, untreated 1.0
[5] = NALM 6, 10^-7 M MET-ENK, untreated 1.1
[6] = NALM 6, 10^-7 M MET-ENK, untreated 1.8
[7] = LAZ 388, 10^-7 M MET-ENK, untreated 1.0
[8] = LAZ 388, 10^-7 M MET-ENK, untreated 11.4

CSCC[C@H](NC(=O)[C@H](Cc1ccccc1)NC(=O)CNC(=O)CNC(=O)[C@@H](N)Cc1ccc(O)cc1)C(=O)O [MET-ENK, Tyr-Gly-Gly-Phe-Met]
cell migration (cell counts) (LAZ 221 cells): 6199 cell counts
duration of enhanced CD9 expression (NALM 6 cells [1]; MET-ENK 10^-7 M): 60 min
time of decline of CD9 expression to near baseline (NALM 6 cells [1]; MET-ENK 10^-7 M): 120 min
incubation time causing increase in CD9 expression (NALM 6 cells [1]; MET-ENK 10^-7 M, pre-B ALL cells): ≤ 10 min
staining for β-1 integrins, MET-ENK treated vs not (NALM 6 cells [1]; NALM 6): equivalent on NALM 6 cells incubated with (+) or without (-) MET-ENK
CD11b (Mac 1) fluorescence ratio (mAb/isotype control) (NALM 6 cells [1]; NALM 6, 10^-7 M MET-ENK 30 min, untreated 1.0): 1.1
CD4 fluorescence ratio (NALM 6 cells [1]; [4]): 1.0
CD44 (homing receptor) fluorescence ratio (NALM 6 cells [1]; [4]): 2.2
CD49b (VLA-α2 chain) fluorescence ratio (NALM 6 cells [1]; [4]): 0.9
CD58 (LFA-3) fluorescence ratio (NALM 6 cells [1]; [4]): 0.9
CD18 (Integrin β chain) fluorescence ratio (NALM 6 cells [1]; [5]): 1.4
CD45 (T200) fluorescence ratio (NALM 6 cells [1]; [5]): 1.0
VLA-1 fluorescence ratio (NALM 6 cells [1]; [5]): 0.6
VLA-3 fluorescence ratio (NALM 6 cells [1]; [5]): 0.7
CD20 fluorescence ratio (NALM 6 cells [1]; NALM 6, 10^-7 M MET-ENK, untreated 1.5): 1.3
CD72 fluorescence ratio (NALM 6 cells [1]; NALM 6, 10^-7 M MET-ENK, untreated 1.6): 2.8
CD23 fluorescence ratio (NALM 6 cells [1]; [6]): 1.6
CD49f (VLA-α6 chain) fluorescence ratio (NALM 6 cells [1]; [6]): 1.3
CD22 fluorescence ratio (NALM 6 cells [1]; NALM 6, 10^-7 M MET-ENK, untreated 2.3): 3.1
CD49d (VLA-α4 chain) fluorescence ratio (NALM 6 cells [1]; NALM 6, 10^-7 M MET-ENK, untreated 3.9): 4.4
VLA-5 fluorescence ratio (NALM 6 cells [1]; NALM 6, 10^-7 M MET-ENK, untreated 5.2): 4.9
CD29 (VLA-β chain) fluorescence ratio (NALM 6 cells [1]; NALM 6, 10^-7 M MET-ENK, untreated 8.4): 9.3
CD54 (ICAM-1) fluorescence ratio (NALM 6 cells [1]; NALM 6, 10^-7 M MET-ENK, untreated 9.3): 10.5
VLA-β; DE9N fluorescence ratio (NALM 6 cells [1]; NALM 6, 10^-7 M MET-ENK, untreated 13.6): 13.8
surface expression of CD10 (NALM 6 cells [1]; NALM 6 / LAZ 221): no effect on CD10 expression
surface expression of CD9 (NALM 6 cells [1]): upregulation of CD9; also recorded: transient increase in their surface expression of CD9 but not CD10 molecules
surface expression of CD9 (NALM 6 cells [1]; listed as Methionine-enkephalin): discrete, transient up-regulation in the CD9 molecules; also recorded: rapid and dose-dependentincrease in the CD9 but not CD10 molecules
CD9 expression, cells in ice water bath (NALM 6 cells [1]; ice water bath, data not shown): had no effect when they were maintained in an ice water bath
CD11a, CD18, CD54 expression, MET-ENK treated vs not (LAZ 388 cells; LAZ 388): equivalent for the MET-ENK-treated (+) and nontreated (-) cells
CD2 (LFA-2) fluorescence ratio (LAZ 388 cells; [7]): 0.9
CD49b (VLA-α2 chain) fluorescence ratio (LAZ 388 cells; [7]): 1.0
VLA-3 fluorescence ratio (LAZ 388 cells; [7]): 1.0
VLA-5 fluorescence ratio (LAZ 388 cells; [7]): 1.0
CD72 fluorescence ratio (LAZ 388 cells; LAZ 388, 10^-7 M MET-ENK, untreated 1.4): 1.7
CD11b (Mac 1) fluorescence ratio (LAZ 388 cells; LAZ 388, 10^-7 M MET-ENK, untreated 1.5): 1.5
CD20 fluorescence ratio (LAZ 388 cells; LAZ 388, 10^-7 M MET-ENK, untreated 1.7): 1.7
VLA-1 fluorescence ratio (LAZ 388 cells; LAZ 388, 10^-7 M MET-ENK, untreated 1.8): 2.0
CD19 fluorescence ratio (LAZ 388 cells; LAZ 388, 10^-7 M MET-ENK, untreated 8.6): 8.0
CD22 fluorescence ratio (LAZ 388 cells; [8]): 11.1
CD29 (VLA-β chain) fluorescence ratio (LAZ 388 cells; [8]): 11.2
VLA-β; DE9N fluorescence ratio (LAZ 388 cells; LAZ 388, 10^-7 M MET-ENK, untreated 11.5): 11.1
CD18 (Integrin β chain) fluorescence ratio (LAZ 388 cells; LAZ 388, 10^-7 M MET-ENK, untreated 11.9): 10.1
CD11a (LF1α) fluorescence ratio (LAZ 388 cells; LAZ 388, 10^-7 M MET-ENK, untreated 12.4): 11.4
CD54 (ICAM-1) fluorescence ratio (LAZ 388 cells; LAZ 388, 10^-7 M MET-ENK, untreated 18.7): 16.6
CD58 (LFA-3) fluorescence ratio (LAZ 388 cells; LAZ 388, 10^-7 M MET-ENK, untreated 22.4): 21.8
CD45 (T200) fluorescence ratio (LAZ 388 cells; LAZ 388, 10^-7 M MET-ENK, untreated 27.4): 27.3
CD23 fluorescence ratio (LAZ 388 cells; LAZ 388, 10^-7 M MET-ENK, untreated 68.2): 70.7
CD44 (homing receptor) fluorescence ratio (LAZ 388 cells; LAZ 388, 10^-7 M MET-ENK, untreated 79.0): 84.6
Bmax, low affinity sites (NALM 6 cells [2]): 4.48×10^4 sites/cell
number of high affinity sites (NALM 6 cells [2]): 25.9 pM
number of low affinity sites (NALM 6 cells [2]): 149 pM
Bmax, low affinity sites (NALM 6 cells [2]; listed as methionine enkephalin): 4.48×10^4 sites/cell
pKd (NALM 6 cells [2]; read-out: Kd, high affinity site): 9.00
pKd (NALM 6 cells [2]; read-out: Kd, low affinity site): 6.50
[Ca^2+ ]i response (Jurkat cells): elicited a rapid rise in [Ca^2+ ]i
cAMP (COS (Vector Control); COS (Vector Control), MET-ENK 0.01 nM, naloxone 10 μM, forskolin 0.1 μM, controls 40.2 and 38.8): 31.6 fmoles/cell × 10^3
effect on cAMP, mock transfected controls (COS (Vector Control); COS transfected with vector alone): no effect on the cAMP produced in mock transfected controls
lag phase before [Ca^2+ ]i rise (NALM 6 cells [3]): ~ 30 sec
human T cell migration (human T cells): potent stimulants for the migration of isolated human T cells
blastogenic responses to T and B cell lectins (PBMC; PBMC): augment the blastogenic responses of PBMC to both T and B cell lectins
IFN-γ production (PBMC; lectin stimulated PBMC): enhance IFN-γ production
